In assay [1] the test system is RAW264.7. Briefly: Antiinflammatory activity in mouse RAW264.7 cells assessed as inhibition of LPS-induced TNFalpha production at 3 to 100 uM preincubated for 2 hrs followed by LPS stimulation and measured after 24 hrs by ELISA. The format is functional. The conditions noted are these: dose 3-100 µM, time 26 hrs. Background: An ELISA detects its analyte on a solid surface through an enzyme-linked reagent.

Assay [2] relates to RAW264.7. Briefly: Antiinflammatory activity in mouse RAW264.7 cells assessed as inhibition of LPS-induced IL-6 production at 3 to 100 uM preincubated for 2 hrs followed by LPS stimulation and measured after 24 hrs by ELISA. Particulars: dose 3-100 µM, time 26 hrs. The format is functional.
The subject of assay [3] is RAW264.7. Briefly: Antiinflammatory activity in mouse RAW264.7 cells assessed as inhibition of LPS-induced NO production at 3 to 100 uM preincubated for 2 hrs followed by LPS stimulation and measured after 24 hrs by Griess method. The format is functional. The conditions noted are these: dose 3-100 µM, time 26 hrs. (Nitrite, measured by Griess reagent, commonly stands in for NO production.)

Assay [4] in a line: Antiinflammatory activity in human HAP1 cells assessed as inhibition of LPS-induced NO production at 5 uM. The format is functional.
For assay [5], the system named is RAW264.7. Briefly: Antiinflammatory activity in mouse RAW264.7 cells assessed as inhibition of LPS-induced NO production for 24 hrs by colorimetric analysis. The format is functional, cell-based. Particulars: RAW264.7, 24 h.
The nature of assay [6]: Anti-osteoclastogenic activity in human BMDC assessed in inhibition of RANKL mediated osteoclast differentiation. The format is functional, cell-based.
Assay [7] is described as follows: Antiinflammatory activity in human HAP1 cells assessed as inhibition of LPS-induced NF-kappaB activation at 5 uM. The format is functional.
Assay [8] can be described thus: Antiinflammatory activity in human HAP1 cells assessed as inhibition of LPS-induced p38 MAPK activation at 5 uM. The format is functional.
Assay [9] is described as follows: Antiinflammatory activity in human HAP1 cells assessed as inhibition of LPS-induced iNOS expression at 5 uM. The format is functional.
Assay [10] in a line: Antiinflammatory activity in human HAP1 cells assessed as inhibition of LPS-induced ROS production at 5 uM. The format is functional.
Assay [11] relates to HUVEC. Briefly: Antiinflammatory activity in human HUVEC cells assessed as LPS induced VCAM-1 expression at 5 to 20 uM preincubated for 1 hrs followed by LPS stimulation and measured after 6 hrs by fluorescence analysis. The format is functional. The conditions noted are these: dose 5-20 µM, time 7 hrs.
The subject of assay [12] is HUVEC. Briefly: Antiinflammatory activity in human HUVEC cells assessed as TNFalpha induced NF-kappaB transactivation at 5 to 20 uM preincubated for 1 hrs followed by TNFalpha stimulation and measured after 6 hrs by fluorescence analysis. The format is functional. The conditions noted are these: dose 5-20 µM, time 7 hrs.
Assay [13] concerns HUVEC. The assay can be described thus: Antiinflammatory activity in human HUVEC cells assessed as TNFalpha induced VCAM-1 expression at 5 to 20 uM preincubated for 1 hrs followed by TNFalpha stimulation and measured after 6 hrs by fluorescence analysis. The format is functional. Particulars: dose 5-20 µM, time 7 hrs.
The subject of assay [14] is HUVEC. Briefly: Antiinflammatory activity in human HUVEC cells assessed as LPS induced NF-kappaB transactivation at 5 to 20 uM preincubated for 1 hrs followed by LPS stimulation and measured after 6 hrs by fluorescence analysis. Particulars: dose 5-20 µM, time 7 hrs. The format is functional.
Assay [15] has as its system Mus musculus. Briefly: Protective activity in Pde6brd10 mouse model of Retinitis pigmentosa assessed as decrease in IL-12 production in retina at 5 mg/kg,ip for 14 days by ELISA. The format is functional. The arrangement: scale not given: the % may be the effect or the level left. Particulars: time 14 day.
Assay [16] has as its system Mus musculus. The assay can be described thus: Protective activity in Pde6brd10 mouse model of Retinitis pigmentosa assessed as decrease in IL-1beta production in retina at 5 mg/kg,ip for 14 days by ELISA. Particulars: time 14 day. The arrangement: scale not given: the % may be the effect or the level left. The format is functional.
The test system of assay [17] is Mus musculus. The assay can be described thus: Protective activity in Pde6brd10 mouse model of Retinitis pigmentosa assessed as decrease in IL-6 gene expression level in retina at 5 mg/kg,ip for 14 days by qRT-PCR analysis. The format is functional. The arrangement: scale not given: the % may be the effect or the level left. Particulars: time 14 day.
The test system of assay [18] is Mus musculus. Briefly: Protective activity in Pde6brd10 mouse model of Retinitis pigmentosa assessed as decrease in IL-1beta gene expression level in retina at 5 mg/kg,ip for 14 days by qRT-PCR analysis. The conditions noted are these: time 14 day. The format is functional. The arrangement: scale not given: the % may be the effect or the level left. For orientation: In qPCR the cycle at which signal appears reflects the starting amount.

Assay [19] concerns Mus musculus. Briefly: Protective activity in Pde6brd10 mouse model of Retinitis pigmentosa assessed as decrease in TNFalpha production in retina at 5 mg/kg,ip for 14 days by ELISA. The format is functional. Details: scale not given: the % may be the effect or the level left. Particulars: time 14 day.
Assay [20] deals with Mus musculus. The assay can be described thus: Protective activity in Pde6brd10 mouse model of Retinitis pigmentosa assessed as decrease in NF-kappaB expression level in retina at 5 mg/kg,ip for 14 days by Western blot analysis. Particulars: time 14 day. The format is functional. The arrangement: scale not given: the % may be the effect or the level left.
In assay [21] the test system is Mus musculus. The assay can be described thus: Protective activity in Pde6brd10 mouse model of Retinitis pigmentosa assessed as decrease in NO production in retina at 5 mg/kg,ip for 14 days by Griess assay. The format is functional. The arrangement: scale not given: the % may be the effect or the level left. Particulars: time 14 day.
The subject of assay [22] is Mus musculus. The assay can be described thus: Protective activity in Pde6brd10 mouse model of Retinitis pigmentosa assessed as decrease in IL-6 production in retina at 5 mg/kg,ip for 14 days by ELISA. Details: scale not given: the % may be the effect or the level left. The conditions noted are these: time 14 day. The format is functional.
In assay [23] the test system is Mus musculus. Briefly: Protective activity in Pde6brd10 mouse model of Retinitis pigmentosa assessed as decrease in IL-12 gene expression level in retina at 5 mg/kg,ip for 14 days by qRT-PCR analysis. The conditions noted are these: time 14 day. Details: scale not given: the % may be the effect or the level left. The format is functional.
Assay [24] has as its system Mus musculus. The assay can be described thus: Protective activity in Pde6brd10 mouse model of Retinitis pigmentosa assessed as decrease in TNF-alpha gene expression level in retina at 5 mg/kg,ip for 14 days by qRT-PCR analysis. The conditions noted are these: time 14 day. The arrangement: scale not given: the % may be the effect or the level left. The format is functional.

The structures appear in SMILES notation. pIC50: −log10 of the molar value.

Consider `COc1cc2ccc1Oc1cc(ccc1O)CC[C@H](O[C@@H]1O[C@H](CO)[C@@H](O)[C@H](O)[C@H]1O)CC(=O)CC2`, for which the “inhibition (INH)” value in the assay with RAW264.7 [1] is on record as 44.1%; with RAW264.7 [2], 29.2%; with RAW264.7 [3] it was 32.7%.

A word on the inhibition: it is the drop in the measured response relative to a control, in per cent. What is called pIC50 is the IC50 on a negative log10 scale, so that one unit is a factor of ten. For the molecule `Oc1ccc(CC[C@@H](O)CC/C=C/c2ccccc2)cc1O`, the inhibition at 5 µM in assay [4] came to 91%; in [7], 52%; in [8], 44%; in assay [9], 85%; in [10], 90%. Further, the negative logarithm of the IC50 (pIC50) is 6.38 in the assay on RAW264.7 [5] and 6.49 in assay [6].

Turning to `COc1cc(CC/C=C/C(=O)CCc2ccc(O)c(OC)c2)ccc1O`, the Activity is listed as 17% in the assay on HUVEC [11], 7% with HUVEC [12], 26% with HUVEC [13] and 8% in the assay on HUVEC [14].

With `COc1c2cc(c(OC)c1O)-c1cc(ccc1O)CC[C@@H](O)CCCC2`, the Activity with Mus musculus [15] was determined as 12%; with Mus musculus [16] it was 22%; in the assay with Mus musculus [17] it was 31%; in the assay with Mus musculus [18], 41%; with Mus musculus [19], 16%; in the assay with Mus musculus [20] it was 50%. Moreover, the Activity with Mus musculus [21] amounted to 21%; with Mus musculus [22], 12%; in the assay on Mus musculus [23], 38%; in the assay with Mus musculus [24] it was 49%.

These data come from ChEMBL document CHEMBL5233262, “Anti-inflammatory activity of naturally occuring diarylheptanoids - A review” (Bioorg Med Chem, 2021).
